The source of these data is ChEMBL document CHEMBL3217702, “Oxadiazole isomers: all bioisosteres are not created equal” (Medchemcomm, 2012).

For orientation: logP means a log measure of how a compound divides between an organic and an aqueous phase. Lower therefore signals a more hydrophilic compound. Usually microsomal CLint stands for the rate of metabolic loss divided by the concentration. In general, half-life refers to the time needed for the level to fall by half in the phase considered. Low readings indicate rapid decline, high ones slow decline. Broadly, the logD is the decadic logarithm of the distribution of all forms, ionised or not, between an organic phase and buffer at a given pH. As a reminder, the fraction unbound is free concentration divided by total concentration. What is called IC50 is the concentration that inhibits the measured activity by half. Low readings indicate inhibition by little substance, high ones a need for much substance. In general, solubility refers to the dissolved amount per volume that the medium holds. Read a low solubility as little dissolved substance.

Series [1] is described as follows: Hexadecane-phosphate buffer distribution coefficient, log P of the compound at pH 7.4. The series is classed as physicochemical.
Series [2] in a line: Hydrolytic stability of the compound at 10 uM at pH 8 at 65 degC after 18 hrs in presence of 2-methoxyethanol. The note with it: buffer, pH 8, 18 h. The series is classed as physicochemical.
A short description of series [3]: Intrinsic clearance in rat hepatocytes measured per 10^6 cells. Conditions: read-out: CLH. The series is classed as ADME, cell-based, Hepatocyte.
Series [4] in a line: Intrinsic clearance in human microsomes. The series is classed as ADME, Microsome.
A short description of series [5]: Permeability from basolateral to apical side in human Caco2 cells. In kind it is ADME, cell-based. The note with it: Caco-2, read-out: permeability.
A short description of series [6]: Permeability from apical to basolateral side in human Caco2 cells. The note with it: Caco-2, read-out: permeability. In kind it is ADME, cell-based.
Series [7] is described as follows: Hydrolytic stability of the compound at 10 uM at pH 6 at 65 degC after 18 hrs in presence of 2-methoxyethanol. In kind it is physicochemical. Conditions: buffer, pH 6, 18 h.
Series [8] is described as follows: Hydrolytic stability of the compound at 10 uM at pH 4 at 65 degC after 18 hrs in presence of 2-methoxyethanol. In kind it is physicochemical. Conditions: buffer, pH 4, 18 h.
A short description of series [9]: Half life at 10 uM at pH 6 at 65 degC. In kind it is physicochemical. The note with it: buffer.
The nature of series [10]: Half life at 10 uM at pH 4 at 65 degC. The series is classed as physicochemical. Conditions: buffer.
Series [11] is described as follows: Half life at 10 uM at pH 4 at 25 degC. The series is classed as physicochemical. The note with it: buffer.
A short description of series [12]: Half life at 10 uM at pH 6 at 25 degC. In kind it is physicochemical. Conditions: buffer.
The nature of series [13]: Half life at 10 uM at pH 8 at 65 degC. In kind it is physicochemical. Conditions: buffer.
Series [14] is described as follows: Half life at 10 uM at pH 8 at 25 degC. Conditions: buffer. In kind it is physicochemical.
The nature of series [15]: physchem. The note with it: octanol/aqueous phosphate buffer, pH 7.4.
Description: Octanol-aqueous phosphate buffer distribution coefficient, log P of the compound at pH 7.4
Series [16] is described as follows: Fraction unbound in human plasma. The series is classed as ADME, cell-free.
Series [17] in a line: Fraction unbound in mouse plasma. In kind it is ADME, cell-free.
For series [18], the target named is Voltage-gated inwardly rectifying potassium channel KCNH2 (Homo sapiens, UniProt Q12809). As to the kind of experiment: Inhibition of human ERG.
A short description of series [19]: physchem. Conditions: aqueous phosphate buffer, pH 7.4.
Description: Solubility of the compound in aqueous phosphate buffer at pH 7.4 at 25 degC after 24 hrs
A short description of series [20]: Fraction unbound in rat plasma. The series is classed as ADME, cell-free.

Each structure is given as a SMILES string. In brackets after ≈: the same amount, converted by molar mass.

Voltage-gated inwardly rectifying potassium channel KCNH2, sequence (Q12809 whole entry): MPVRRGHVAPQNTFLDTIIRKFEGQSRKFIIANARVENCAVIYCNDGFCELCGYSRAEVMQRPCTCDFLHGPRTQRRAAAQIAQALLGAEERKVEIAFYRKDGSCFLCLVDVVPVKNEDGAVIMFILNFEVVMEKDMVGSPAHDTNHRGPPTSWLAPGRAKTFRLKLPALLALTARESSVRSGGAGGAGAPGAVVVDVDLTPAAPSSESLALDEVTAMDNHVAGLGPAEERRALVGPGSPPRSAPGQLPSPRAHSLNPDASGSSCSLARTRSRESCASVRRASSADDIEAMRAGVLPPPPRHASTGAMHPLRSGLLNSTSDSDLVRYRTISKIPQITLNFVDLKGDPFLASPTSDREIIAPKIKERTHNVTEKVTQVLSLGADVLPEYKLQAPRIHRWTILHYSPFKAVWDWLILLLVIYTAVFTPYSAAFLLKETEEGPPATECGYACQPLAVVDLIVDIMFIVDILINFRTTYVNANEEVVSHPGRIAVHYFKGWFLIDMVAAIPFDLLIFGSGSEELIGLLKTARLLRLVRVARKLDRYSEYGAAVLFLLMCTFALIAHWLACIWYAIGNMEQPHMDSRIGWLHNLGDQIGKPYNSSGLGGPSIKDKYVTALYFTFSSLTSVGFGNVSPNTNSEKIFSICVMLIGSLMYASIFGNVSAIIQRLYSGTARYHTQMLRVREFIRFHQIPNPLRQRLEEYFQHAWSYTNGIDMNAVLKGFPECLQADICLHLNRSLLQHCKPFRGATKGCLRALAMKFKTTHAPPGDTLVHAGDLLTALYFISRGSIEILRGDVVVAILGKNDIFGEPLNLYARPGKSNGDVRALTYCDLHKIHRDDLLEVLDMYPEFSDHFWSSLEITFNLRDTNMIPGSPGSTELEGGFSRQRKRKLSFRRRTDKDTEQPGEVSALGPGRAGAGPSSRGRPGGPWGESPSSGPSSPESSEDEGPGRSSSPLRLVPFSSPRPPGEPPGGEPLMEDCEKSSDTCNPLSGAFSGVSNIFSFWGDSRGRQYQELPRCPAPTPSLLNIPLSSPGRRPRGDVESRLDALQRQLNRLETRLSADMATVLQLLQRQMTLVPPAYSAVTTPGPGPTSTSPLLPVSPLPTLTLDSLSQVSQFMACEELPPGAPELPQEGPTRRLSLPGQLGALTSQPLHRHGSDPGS

`CC(C)c1nc(N2CCN(c3ncc(OCc4ccncc4C#N)cn3)[C@H](C)C2)no1` returned a logP in [1] of 1.3. In addition, the Stability entry in series [2], in [7] and in series [8] was “Stable” each time. Also, the hepatocyte CLint in series [3] is 70 µL/min/1e6 cells. The molecule also gave an intrinsic clearance (microsomal CLint) in series [4] of 48 µL/min/mg. Besides, in [5], the Papp B→A came to 6 ×10⁻⁶ cm/s. In addition, in series [6], the Papp A→B came to 15 ×10⁻⁶ cm/s.
Turning to `C[C@@H]1CN(c2noc(C(F)(F)F)n2)CCN1c1ncc(OCc2ccncc2C#N)cn1`, the logP in [1] came out at 2.9. In addition, the Stability result in series [2], in [7] and in series [8] was “Unstable” throughout. In addition, the hepatocyte CLint in series [3] came to 42 µL/min/1e6 cells. The microsomal CLint in series [4] is 28 µL/min/mg. For the same molecule, the half-life at 10 µM was 8.64 h in [9]; 6.96 h in [10]; 137 h in [11]; 214 h in series [12]; 2.88 h in series [13]; 127 h in series [14]. For the same molecule, the Papp B→A in [5] worked out at 6 ×10⁻⁶ cm/s. In series [6], the Papp A→B turned out to be 23 ×10⁻⁶ cm/s.
`C[C@@H]1CN(c2noc(C(F)F)n2)CCN1c1ncc(OCc2ccncc2C#N)cn1` displayed a logD in the series “physchem [15]” of 2.8. Further, in [1], the logP came out at 1.4. For the same molecule, the Stability result in series [2], in series [7] and in [8] was “Stable” throughout.
Take `CC(C)c1noc(N2CCN(c3ncc(OCc4ccncc4C#N)cn3)[C@H](C)C2)n1`: the Stability entry in series [2], in series [7] and in series [8] was “Stable” throughout. Besides, the hepatocyte CLint in series [3] was determined as 72 µL/min/1e6 cells. In series [4], the microsomal CLint is 55 µL/min/mg.
In the case of `C[C@@H]1CN(c2nc(C(F)(F)F)no2)CCN1c1ncc(OCc2ccncc2C#N)cn1`, the logP in series [1] stood at 1.4. For the same molecule, the Stability entry in [2], in series [7] and in [8] was “Stable” each time. The hepatocyte CLint in [3] was 52 µL/min/1e6 cells. Besides, in [4], the microsomal CLint came out at 40 µL/min/mg. In addition, the Papp B→A in series [5] is 6 ×10⁻⁶ cm/s. Moreover, the Papp A→B in [6] worked out at 13 ×10⁻⁶ cm/s.
In turn, `CC(C)c1nnc(N2CCN(c3ncc(OCc4ccncc4C#N)cn3)[C@H](C)C2)o1` gave a logD in “physchem [15]” of 2.6. The fraction unbound stood at 0.071 in [16], 0.131 in [17] and 0.087 in series [20]. The molecule further displayed a logP in series [1] of -0.5. For the same molecule, the 50% inhibitory concentration (IC50) in series [18] is above 28 µM. Besides, the Stability entry in [2], in [7] and in series [8] was “Stable” in each case. Also, in series [3], the hepatocyte CLint worked out at 63 µL/min/1e6 cells. The microsomal CLint in series [4] was 47 µL/min/mg. The same molecule yielded a solubility at 24 h in “physchem [19]” of 150 µM (≈ 63.1 µg/mL). In series [5], the Papp B→A came to 13 ×10⁻⁶ cm/s. The Papp A→B in series [6] was 16 ×10⁻⁶ cm/s.
In the series “physchem [15]”, `C[C@@H]1CN(c2nnc(C(F)(F)F)o2)CCN1c1ncc(OCc2ccncc2C#N)cn1` showed a log distribution coefficient (logD) of 2.7. The same molecule showed a logP in series [1] of 0.5. Further, the Stability entry in series [2], in [7] and in [8] was “Stable” in each case. Also, the hepatocyte CLint in series [3] came out at 53 µL/min/1e6 cells. The molecule also showed a microsomal CLint in series [4] of 34 µL/min/mg. Further, in [5], the Papp B→A turned out to be 21 ×10⁻⁶ cm/s. The Papp A→B in series [6] was 18 ×10⁻⁶ cm/s.
